Results on two substances are retold here after patent publication US20140094387A1, “SUV39H2 AS A TARGET GENE FOR CANCER THERAPY AND DIAGNOSIS” (ONCOTHERAPY SCIENCE, INC., priority 2011, published 2014).

This series has as its system SUV39H2. The experiment in a line: Quantitative real-time PCR of SUV39H2 expression after siRNA transfection. The format is cell-based, human. As to conditions: A549 and SW780 cells; siRNA 100 nM; normalized by GAPDH, relative to siEGFP (siEGFP=1); vs control siRNAs siEGFP and siNC. (In qPCR the cycle at which signal appears reflects the starting amount.)

For “siSUV39H2#1: siRNA duplex targeting human SUV39H2; target 5' CUUUGGUUGUUCAUGCACA 3' (SEQ ID NO: 19); sense SEQ ID NO: 15, antisense SEQ ID NO: 16 (sense CUUUGGUUGUUCAUGCACATT; antisense UGUGCAUGAACAACCAAAGTT; chemistry not given here)”, the “SUV39H2 mRNA expression level” value is given as “suppression of endogenous SUV39H2 expression”. The entry for “siSUV39H2#2: siRNA duplex targeting human SUV39H2; target 5' CUGGAAUCAGCUUAGUCAA 3' (SEQ ID NO: 20); sense SEQ ID NO: 17, antisense SEQ ID NO: 18 (sense CUGGAAUCAGCUUAGUCAATT; antisense UUGACUAAGCUGAUUCCAGTT; chemistry not given here)” is “suppression of endogenous SUV39H2 expression”.
